Results: patent publication US5414000A, “Antiviral pyrinyl substituted tetrahydropyrans” (Bristol-Myers Squibb Co., priority 1994, dated 1995)

Tests used:
Assay type in all cases: cell-based
[1] = tested on: HSV-1 (herpes simplex virus type 1, strain Schooler); test: HSV-1 antiviral plaque reduction assay in WI-38 cell culture; settings: Human alphaherpesvirus 1, 96 h; HSV-1 strain Schooler; WI-38 monolayers; at least 50% plaque reduction vs virus controls; 4 days at 37° C.; read-out: ID50 HSV-1
Experimental: (§1) Assays were performed in cell culture systems to determine the concentrations of compounds that are effective in preventing several kinds of viral infections. Abbreviations:
(§2) HSV-1 (herpes simplex virus type 1, strain Schooler), HSV-2 (herpes simplex virus type 2, strain 186), VZV (varicella zoster virus, strain ELLEN), HCMC (human cytomegalovirus, strain AD 169). Cell Culture Assays:
(§3) HSV-1, HSV-2, HCMV and VZV antiviral assays: Virus was adsorbed to WI-38 cell culture monolayers in 5 well culture plates (Costar, Cambridge, Mass.) for 1 hour prior to addition of maintenance medium containing duplicate dilutions of the test compound. Inhibition of plaque development was evaluated on fixed and stained monolayers after 4 days incubation at 37° C. for HSV-1 and HSV-2, and after 5-7 days incubation at 37° C. for HCMV and VZV. ID50 values were determined from the drug concentration which conferred at least a 50% plaque reduction compared to virus controls.

[2] = tested on: HSV-2 (herpes simplex virus type 2, strain 186); test: HSV-2 antiviral plaque reduction assay in WI-38 cell culture; settings: Human alphaherpesvirus 2, 96 h; HSV-2 strain 186; WI-38 monolayers; at least 50% plaque reduction vs virus controls; 4 days at 37° C.; read-out: ID50 HSV-2
Experimental: as §1, §2, §3

[3] = tested on: VZV (varicella zoster virus, strain ELLEN); test: VZV antiviral plaque reduction assay in WI-38 cell culture; settings: Human alphaherpesvirus 3, WI-38 monolayers, at least 50% plaque reduction vs virus controls, 5-7 days at 37° C., read-out: ID50 VZV
Experimental: as §1, §2, §3

[4] = tested on: HCMV (human cytomegalovirus, strain AD 169); test: HCMV antiviral plaque reduction assay in WI-38 cell culture; settings: Human betaherpesvirus 5; HCMV strain AD 169; WI-38 monolayers; at least 50% plaque reduction vs virus controls; 5-7 days at 37° C.; read-out: ID50 HCMV
Experimental: as §1, §2, §3

Nc1nc2c(ncn2[C@@H]2CO[C@H](CO)[C@@H](O)C2)c(=O)[nH]1 [Example 1, [3S-(3α, 5β, 6α)]-2-Amino-1,9-dihydro-9-[tetrahydro-5-hydroxy-6-(hydroxymethyl)-2H-pyran-3-yl]-6H-purin-6-one]
IC50 [1]: 18 µM | IC50 [2]: 18 µM | IC50 [3]: 18 to 36 µM | IC50 [4]: 18 to 36 µM

Nc1ncnc2c1ncn2[C@@H]1CO[C@H](CO)[C@@H](O)C1 [Example 2, [2R-(2α, 3β, 5α)]-5-(6-Amino-9H-purin-9yl)tetrahydro-3-hydroxy-2H-pyran-2-methanol]
IC50 [1]: 8 to 19 µM | IC50 [2]: 8 to 19 µM | IC50 [3]: 38 µM | IC50 [4]: 4 to 38 µM

Nc1ccn([C@@H]2CO[C@H](CO)[C@@H](O)C2)c(=O)n1 [Example 3, [3S-(3α, 5β, 6α)]-4-Amino-1-[tetrahydro-5-hydroxy-6-(hydroxymethyl) -2H-pyran-3-yl]-2-(1H) -pyrimidinone]
IC50 [1]: 0.4 to 0.8 µM | IC50 [2]: 0.4 to 0.8 µM | IC50 [3]: 4 to 8 µM | IC50 [4]: 2 µM

O=c1[nH]c(=O)n([C@@H]2CO[C@H](CO)[C@@H](O)C2)cc1I [Example 4, [3S-(3α, 5β, 6α)]-5-Iodo-1-[tetrahydro-5-hydroxy-6-(hydroxymethyl) -2H-pyran-3-yl]-2,4 (1H, 3H) -pyrimidinedione]
IC50 [1]: 0.3 to 1.4 µM | IC50 [2]: 3 to 5.4 µM | IC50 [3]: 68 to 272 µM | IC50 [4]: > 272 µM

Cc1cn([C@@H]2CO[C@H](CO)[C@@H](O)C2)c(=O)[nH]c1=O [Example 5, [3S-(3α, 5β, 6α)]-5-Methyl-1-[tetrahydro-5-hydroxy-6-(hydroxymethyl)-2H-pyran-3-yl]-2,4 (1H, 3H)-pyrimidinedione]
IC50 [1]: 390 µM | IC50 [2]: > 390 µM | IC50 [3]: 39 to 390 µM | IC50 [4]: ≥ 390 µM

O=c1[nH]c(=O)n([C@@H]2CO[C@H](CO)[C@@H](O)C2)cc1/C=C/Br [Example 6]
IC50 [1]: 29 to 72 µM | IC50 [2]: > 288 µM | IC50 [3]: 5.7 to 14.5 µM | IC50 [4]: > 288 µM
